For data set [1] the following is noted: cited from earlier work.
Another data set has as its system TfR. As to conditions: cited from earlier work.
For data set [2] the following is noted: cited from earlier work. This is another data set of the same source.
In the next data set the target is human TfR (Homo sapiens, UniProt P02786). As to conditions: SPR, 40 nM analyte, HBS-P+ pH 7.4, 56 RUs captured human TfR. A general note: Surface plasmon resonance follows binding to a sensor surface in real time, without labels.
Sequence of human TfR (P02786 121-760): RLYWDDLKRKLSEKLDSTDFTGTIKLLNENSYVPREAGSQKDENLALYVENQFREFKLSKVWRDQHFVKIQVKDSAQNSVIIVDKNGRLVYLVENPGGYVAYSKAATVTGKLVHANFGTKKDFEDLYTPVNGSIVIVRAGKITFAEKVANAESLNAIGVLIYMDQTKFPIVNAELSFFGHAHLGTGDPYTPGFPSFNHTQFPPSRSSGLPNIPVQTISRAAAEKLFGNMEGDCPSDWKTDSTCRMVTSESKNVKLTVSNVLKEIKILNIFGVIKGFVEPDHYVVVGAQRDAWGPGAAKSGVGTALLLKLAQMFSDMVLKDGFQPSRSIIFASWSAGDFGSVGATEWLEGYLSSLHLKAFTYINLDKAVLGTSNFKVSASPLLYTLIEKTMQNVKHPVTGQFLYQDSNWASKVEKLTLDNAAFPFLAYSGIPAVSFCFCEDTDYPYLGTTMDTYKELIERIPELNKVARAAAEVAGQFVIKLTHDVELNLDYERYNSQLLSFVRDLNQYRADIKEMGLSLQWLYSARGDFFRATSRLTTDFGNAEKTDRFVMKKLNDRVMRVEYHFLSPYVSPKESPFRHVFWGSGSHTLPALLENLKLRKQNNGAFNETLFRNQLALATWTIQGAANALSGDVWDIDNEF

Turning to Angiopep-2, the serum degradation half-life in data set [1] is ~ 20 minutes.

As for transferrin, in the data set with TfR, the “endocytosis rate t½” value was 3.5 min. Also, in data set [2], the plasma half-life is 40 h.

As for holo-transferrin, the “interaction with captured TfR” value on human TfR is “demonstrated an interaction”.
